In article PMC12608155, “Discovery of Potential Antileishmanial Compounds Through Phenotypic Screening of an Alkaloid Library” (Molecules, 2025):
Read-outs that look alike come from different tables or passages of the source.

How the values were obtained:
[1] = test system: L. donovani IRFP axenic amastigotes; test: Primary single-concentration screening on axenic amastigotes, growth inhibition at 72 h; format: cell-based, Leishmania donovani; details: axenic amastigotes; for Growth Inhibition (%) at 72h, 1 µM_Exp1 / Growth Inhibition (%) at 72h, 1 µM_Exp2 / inhibition at 1 µM: 1 µM; for Growth Inhibition (%) at 72h, 10 µM_Exp1 / Growth Inhibition (%) at 72h, 10 µM_Exp2 / inhibition at 10 µM: 10 µM; for inhibition at 1 µM / inhibition at 10 µM: Leishmania donovani
[2] = test system: L. donovani IRFP axenic amastigotes; test: Dose-response assay on axenic amastigotes; format: cell-based, Leishmania donovani
Description: The objective of the present study was to identify new antileishmanial drug candidates by screening a commercial library of plant-derived alkaloids using a platform based on axenic amastigotes of L. donovani IRFP—the causative agent of VL—genetically modified to emit infrared fluorescence during their viable stage (hereafter referred to as L. donovani IRFP). To this end, single-dose assays at 10 μM and 1 μM, as well as dose–response assays, were performed. Compounds showing significant activity in the initial screening were subsequently clustered according to chemical structure using the DataWarrior tool, and representative compounds were further evaluated in dose response assays against axenic amastigotes.
Female Balb/c mice aged from 6 to 8 weeks were intraperitoneally inoculated with 1.5 × 10^9 infective L. donovani IRFP metacyclic promastigotes. Between 8 and 12 weeks after infection, mice were humanely euthanised and bone marrow was collected from the femurs and tibias of both hind limbs. The bones were cut at both ends, and prewarmed PBS was flushed through the medullary cavity using a syringe fitted with a 27G needle, to extract the bone marrow cells. The resulting cell suspension was filtered through a 100 µm cell strainer and centrifuged at 2500 rpm for 10 min at room temperature. To obtain free amastigotes, the pelleted cells were resuspended within a 75 mL ventilated flask in amastigote culture medium (15 mM KCl; 136 mM KH2PO4; 10 mM K2HPO4.3H2O; 0.5 mM MgSO4.7 H2O; 24 mM NaHCO3; 22 mM glucose; 1 mM glutamine, 1x RPMI 1640 vitamin mix (Sigma-Aldrich, Merck, Darmstadt, Germany), 10 mM folic acid, […], 1x RPMI amino acid mix (Sigma-Aldrich, Merck, Darmstadt, Germany), […], antibiotic mixture, 25 mM MES, 10% FBS (Gibco, ThermoFisher Scientific, Waltham, MA, USA) and incubated at 37 °C in a humidified atmosphere containing 5% CO2 [46].
The efficacy of the selected compounds was assessed by measuring near-infrared fluorescence (700 nm) using an Odyssey Infrared Imaging System (Li-Cor, Lincoln, NE, USA) following the previously described protocols.

[3] = test system: L. donovani IRFP intramacrophagic amastigotes; test: Dose-response assay on ex vivo infected splenic explants (intramacrophagic amastigotes); format: cell-based, Leishmania donovani; details: read-out: EC50 Intramacrophagic Amastigotes
RAW 264.7 = test: Cytotoxicity in RAW 264.7 cells (alamarBlue, 72 h); details: read-out: CC50 RAW 264.7; 72 h, alamarBlue
Description: (§1) To this end, we calculated SIs from 16 preselected results from the ex vivo system. With this aim, dose–response curves were performed in duplicate across at least three independent experiments using RAW 264.7 mouse macrophages (as a model of host cells harboring amastigotes) and HepG2 (as a model for assessing systemic toxicity).
(§2) To evaluate the safety of the selected compounds, two cell lines were employed: RAW 264.7 (a mouse macrophage-derived cell line) and HepG2 (a human hepatoma cell line). Furthermore, to determine the intestinal tolerance relevant to potential oral administration, mouse intestinal organoids were prepared.
(§3) RAW 264.7 and HepG2 were routinely cultured under standard conditions. RAW 264.7 cells were maintained in RPMI medium (Gibco) supplemented with, 25 mM HEPES, 24 mM NaHCO3, 2 mM L-glutamine, mixture of antibiotics and 10% FBS. HepG2 cells were cultured in DMEM/F-12 (Gibco) and supplemented 10% of FBS. For cytotoxicity assays, 10,000 cells per well were seeded into 96-well plates and incubated overnight at 37 °C with 5% of CO2. Subsequently, 2-fold serial dilutions of the compounds were added and incubated for 72 h. Cell viability using the alamarBlue™ assay according to the manufacturer’s instructions, and fluorescence was measured with a Varioskan™ LUX microplate reader (ThermoFisher Scientific, Waltham, MA, USA). Non-linear regression analyses were performed using SigmaPlot^TM software (version 10.0) to calculate CC50. Data were obtained from at least three independent experiments performed in duplicate.

HepG2 = test: Cytotoxicity in HepG2 cells (alamarBlue, 72 h); details: read-out: CC50 HepG2; 72 h, alamarBlue
Description: as §1, §2, §3

[4] = test system: mouse intestinal organoids; test: Tolerance of mouse intestinal organoids (alamarBlue); format: cell-based; details: for CC50: 72 h incubation, Figure S4
Source text: Mouse intestinal organoids were generated following protocols standardized previously. Briefly, to obtain adult intestine stem cells, C57BL/6 mice were humanely euthanized. A section of the duodenum was excised, rinsed in ice-cold PBS, and cut into small pieces for gentle dissociation using Gentle Cell Dissociation Reagent. Tissue fragments enriched in duodenal crypts and little tissue debris were microscopically selected and resuspended in a 1:1 mixture of Geltrex™ and IntestiCult™ Mouse Medium (Gibco, ThermoFisher Scientific, Waltham, MA, USA /Stemcell Technologies^TM, Vancouver, BC, Canada). Aliquots of 50 µL of this suspension were dispensed into the center of each well of a prewarmed 24-well plate to form domes containing organoids, which were then incubated to allow matrix polymerization. Then, […] of IntestiCult™ Mouse Medium was added to each well. The plate was incubated at 37 °C in a humidified atmosphere containing 5% CO2, and the culture medium was refreshed every 48 h. During this period, organoids continued to proliferate, and passaging was performed at a 1:4 ratio every 7–10 days.
To determine the in vitro tolerance to oral administration of the active compounds, a 384-well assay was adapted from the protocol described by Du and co-workers. Briefly, following medium removal, organoids were collected from the extracellular matrix using the same procedure as for passaging. The resulting pellet was resuspended in 3.2 mL of a 1:1 mixture of Geltrex™ LDEV-Free Reduced Growth Factor Basement Membrane Matrix (without phenol red, Gibco) and IntestiCult™ Mouse Medium. Using a chilled pipette dispenser, 8 µL of the organoid suspension was dispensed into pre-cooled 384-well plates, which were then gently agitated to evenly distribute the matrix. The plates were incubated at 37 °C for 10 min and then, 32 µL of IntestiCult™ Mouse Medium was added to each well. To prevent edge effects, 100 µL of sterile water was added to the perimeter wells. After 3 days of culture, 10 µL per well of the test compounds dissolved in IntestiCult™ Mouse Medium were added. Positive (0.03% H2O2) and negative (0.2% DMSO) controls were included in each assay. After 72 h of incubation, 5 µL of alamarBlue™ HS were added to each well, and fluorescence was measured after 24 h using a Varioskan™ LUX microplate reader. All assays were conducted in triplicate and repeated in at least three independent experiments.

[5] = Cytotoxicity in RAW 264.7 cells (alamarBlue, 72 h); details: mouse
Description: as §1, §2, §3

[6] = Cytotoxicity in HepG2 cells (alamarBlue, 72 h); details: human
Description: as §1, §2, §3

[7] = primary cultures of infected mouse splenocytes
[8] = experiment 1, 72 h, read-out: Growth Inhibition (%) at 72h, 1 µM_Exp1
[9] = experiment 2, 72 h, read-out: Growth Inhibition (%) at 72h, 1 µM_Exp2
[10] = experiment 1, 72 h, read-out: Growth Inhibition (%) at 72h, 10 µM_Exp1
[11] = experiment 2, 72 h, read-out: Growth Inhibition (%) at 72h, 10 µM_Exp2
[12] = Leishmania donovani, Splenocyte, primary cultures of infected mouse splenocytes
[13] = Leishmania donovani, Splenocyte, in Mus musculus

| SMILES | Growth Inhibition (%) at 72h, 1 µM_Exp1 ([1]; experiment 1, 72 h) | Growth Inhibition (%) at 72h, 1 µM_Exp2 ([1]; experiment 2, 72 h) | Growth Inhibition (%) at 72h, 10 µM_Exp1 ([1]; experiment 1, 72 h) | Growth Inhibition (%) at 72h, 10 µM_Exp2 ([1]; experiment 2, 72 h) | IC50 [2] | EC50 [3, 7] | CC50 (RAW 264.7) | CC50 (HepG2) | inhibition at 1 µM [1, 8] | inhibition at 1 µM [1, 9] | inhibition at 10 µM [1, 10] | inhibition at 10 µM [1, 11] | IC50 ([2]; Leishmania donovani) | EC50 [3, 12] | CC50 at 72 h ([5]; RAW 264.7 macrophage cells) | CC50 at 72 h ([6]; HepG2 hepatoma cells) | other results |
| --- | --- | --- | --- | --- | --- | --- | --- | --- | --- | --- | --- | --- | --- | --- | --- | --- | --- |
| COc1ccc2c(C)c3[n+](cc2c1OC)CCc1cc2c(cc1-3)OCO2 [13-Methylberberine] | 58.33% | 69.84% | 86.05% | 98.60% | 0.5 ± 0.04 µM | 0.75 ± 0.02 µM | > 10 µM | 28.3 ± 9.18 µM | – | – | – | – | – | – | – | – | CC50 [4]: > 10 µM |
| COc1ccc2c(c1OC)C(OC)N(C)c1c-2ccc2cc3c(cc12)OCO3 (centres unmarked) [Angoline] | 83.55% | 85.33% | 100.85% | 100.07% | 0.12 ± 0.01 µM | 1.15 ± 0.04 µM | 5.28 ± 0.28 µM | 5.15 ± 0.21 µM | – | – | – | – | – | – | – | – | CC50 [4]: 12.6 ± 0.6 µM; Toxicity in mouse intestinal organoids (tolerance for oral administration) ([4]; in words): significant toxicity |
| COc1cc2c3c(cc4ccccc4c3c1OC)N(C)CC2 [Dehydronuciferine] | – | – | – | – | – | – | – | – | 86.7% | 77.8% | 100% | 100% | 1.23 ± 0.03 µM | > 50 µM | 18.6 ± 1.11 µM | 25.5 ± 5.43 µM | – |
| COc1ccc2c(c1OC)CN(C)c1c-2ccc2cc3c(cc12)OCO3 [Dihydrochelerythrine] | – | – | – | – | – | – | – | – | 100% | 97.9% | 100% | 100% | 0.06 ± 0.005 µM | 10.5 ± 0.75 µM | > 50 µM | > 50 µM | – |
| CN1Cc2c(ccc3c2OCO3)-c2ccc3cc4c(cc3c21)OCO4 [Dihydrosanguinarine] | – | – | – | – | – | – | – | – | 99.3% | 97.6% | 99.8% | 99.7% | 0.19 ± 0.01 µM | – | – | – | EC50 [3, 13]: 8.55 ± 1.33 µM; CC50 at 72 h [5]: 46.5 ± 10.1 µM; CC50 at 72 h [6]: > 40 µM |
| CCOC1c2c(ccc3c2OCO3)-c2ccc3cc4c(cc3c2N1C)OCO4 (centres unmarked) [Ethoxysanguinarine] | 100.74% | 99.44% | 100.41% | 100.07% | 0.21 ± 0.03 µM | 0.84 ± 0.03 µM | 1.62 ± 0.11 µM | 1.44 ± 0.03 µM | – | – | – | – | – | – | – | – | – |
| CN1C(=O)/C(=C2/C(=O)Nc3ccccc32)c2ccccc21 [Meisoindigo] | – | – | – | – | – | – | – | – | 100% | 100% | 100% | 100% | 1.53 ± 0.21 µM | 9.3 ± 0.52 µM | 14.9 ± 0.9 µM | 20.4 ± 1.4 µM | – |
| CC[C@@H]1[C@H]2CCCCN3[C@H]2[C@@H](C[C@H]3[C@@H]2C[C@H](C)C(=O)O2)[C@H]2[C@@H]1OC(=O)[C@H]2C [Neotuberostemonine] | – | – | – | – | – | – | – | – | 38% | 69.7% | 101% | 101% | 1.27 ± 0.06 µM | > 25 µM | – | – | CC50 at 72 h [5]: 39.1 ± 2.2 µM; CC50 at 72 h [6]: > 50 µM |
| c1c2c(cc3c1OCO3)-c1cc3cc4c(cc3c[n+]1CC2)OCO4 [Pseudocoptisine] | 65.54% | 88.42% | 97.95% | 99.04% | 0.81 ± 0.12 µM | 1.43 ± 0.07 µM | > 10 µM | > 10 µM | – | – | – | – | – | – | – | – | CC50 [4]: > 10 µM |
| C[n+]1cc2c3c(ccc2c2ccc4cc5c(cc4c21)OCO5)OCO3 [Sanguinarine] | – | – | – | – | – | – | – | – | 99.7% | 99.5% | 100% | 101% | 0.19 ± 0.01 µM | – | 1.84 ± 0.06 µM | 2.08 ± 0.06 µM | EC50 [3, 13]: 0.85 ± 0.03 µM |
| CC[C@@H]1[C@H]2CCCCN3[C@H]2[C@H](C[C@H]3[C@@H]2C[C@H](C)C(=O)O2)[C@@H]2[C@H]1OC(=O)[C@H]2C [Tuberostemonine] | – | – | – | – | – | – | – | – | 63.6% | 53% | 102% | 101% | 2.06 ± 0.11 µM | > 50 µM | – | – | CC50 at 72 h [5]: 50 ± 5.51 µM; CC50 at 72 h [6]: > 40 µM |
